ChEMBL document CHEMBL5120836, “Discovery of novel 7,8-dihydropteridine-6(5H)-one-based DNA-PK inhibitors as potential anticancer agents via scaffold hopping strategy” (Eur J Med Chem, 2022)
Converted amounts (≈) assume the structure as drawn.

Experiments:
[1] = system: HCT-116; assay: Induction of apoptosis in human HCT-116 cells assessed as viable cells at 1 uM incubated for 24 hrs by AnnexinV-FITC/PI staining based flow cytometry (reference value: 93.9%); type: functional; details: read-out: Activity
[2] = Kinetic solubility of the compound in phosphate-buffered solution at pH 6.4 incubated for 24 hrs by HPLC-MS/MS analysis; type: physicochemical; details: phosphate buffer, read-out: Kinetic_solubility
[3] = system: HepG2; assay: Synergistic antiproliferative activity against Doxorubicin-resistant human HepG2 cells assessed as combination index at 12.5 uM in presence of 0.1 uM doxorubicin by MTT assay; type: functional
[4] = system: HCT-116; assay: Induction of apoptosis in human HCT-116 cells assessed as early apoptotic cells at 1 uM incubated for 24 hrs by AnnexinV-FITC/PI staining based flow cytometry (reference value: 3.04%); type: functional
[5] = system: HCT-116; assay: Induction of apoptosis in human HCT-116 cells assessed as necrotic cells at 1 uM incubated for 24 hrs by AnnexinV-FITC/PI staining based flow cytometry (reference value: 0.031%); type: functional
[6] = system: MCF7; assay: Synergistic antiproliferative activity against human MCF7 cells assessed as combination index at 100 uM in presence of 0.1 uM doxorubicin by MTT assay; type: functional
[7] = system: HepG2; assay: Synergistic antiproliferative activity against Doxorubicin-resistant human HepG2 cells assessed as combination index at 1 uM in presence of 0.1 uM doxorubicin by MTT assay; type: functional
[8] = Toxicity in BALB/c nude mouse xenografted with human HL-60 cells assessed as kidney morphological alterations at 100 mg/kg, po qd for 16 days by Hematoxylin and Eosin staining based analysis; type: organism-based; details: in vivo, 384 h, time 16 day
[9] = system: MDA-MB-231; assay: Synergistic antiproliferative activity against human MDA-MB-231 cells assessed as combination index at 12.5 uM in presence of 0.1 uM doxorubicin by MTT assay; type: functional
[10] = system: HL-60; assay: Synergistic antiproliferative activity against human HL-60 cells assessed as combination index at 200 uM in presence of 0.1 uM doxorubicin by MTT assay; type: functional
[11] = biological target: Phosphatidylinositol 4,5-bisphosphate 3-kinase catalytic subunit beta isoform (Homo sapiens, UniProt P42338); assay: Inhibition of human PI3Kbeta by ADP-Glo assay; type: toxicity
[12] = system: HL-60; assay: Synergistic antitumor activity against human HL-60 cells xenografted in BALB/c nude mouse assessed as tumor volume at 100 mg/kg, po qd for 16 days co-administered with doxorubicin (reference value: 32.2%); type: functional; details: HL-60, 384 h, time 16 day

Chain of Phosphatidylinositol 4,5-bisphosphate 3-kinase catalytic subunit beta isoform (P42338 whole entry, canonical isoform): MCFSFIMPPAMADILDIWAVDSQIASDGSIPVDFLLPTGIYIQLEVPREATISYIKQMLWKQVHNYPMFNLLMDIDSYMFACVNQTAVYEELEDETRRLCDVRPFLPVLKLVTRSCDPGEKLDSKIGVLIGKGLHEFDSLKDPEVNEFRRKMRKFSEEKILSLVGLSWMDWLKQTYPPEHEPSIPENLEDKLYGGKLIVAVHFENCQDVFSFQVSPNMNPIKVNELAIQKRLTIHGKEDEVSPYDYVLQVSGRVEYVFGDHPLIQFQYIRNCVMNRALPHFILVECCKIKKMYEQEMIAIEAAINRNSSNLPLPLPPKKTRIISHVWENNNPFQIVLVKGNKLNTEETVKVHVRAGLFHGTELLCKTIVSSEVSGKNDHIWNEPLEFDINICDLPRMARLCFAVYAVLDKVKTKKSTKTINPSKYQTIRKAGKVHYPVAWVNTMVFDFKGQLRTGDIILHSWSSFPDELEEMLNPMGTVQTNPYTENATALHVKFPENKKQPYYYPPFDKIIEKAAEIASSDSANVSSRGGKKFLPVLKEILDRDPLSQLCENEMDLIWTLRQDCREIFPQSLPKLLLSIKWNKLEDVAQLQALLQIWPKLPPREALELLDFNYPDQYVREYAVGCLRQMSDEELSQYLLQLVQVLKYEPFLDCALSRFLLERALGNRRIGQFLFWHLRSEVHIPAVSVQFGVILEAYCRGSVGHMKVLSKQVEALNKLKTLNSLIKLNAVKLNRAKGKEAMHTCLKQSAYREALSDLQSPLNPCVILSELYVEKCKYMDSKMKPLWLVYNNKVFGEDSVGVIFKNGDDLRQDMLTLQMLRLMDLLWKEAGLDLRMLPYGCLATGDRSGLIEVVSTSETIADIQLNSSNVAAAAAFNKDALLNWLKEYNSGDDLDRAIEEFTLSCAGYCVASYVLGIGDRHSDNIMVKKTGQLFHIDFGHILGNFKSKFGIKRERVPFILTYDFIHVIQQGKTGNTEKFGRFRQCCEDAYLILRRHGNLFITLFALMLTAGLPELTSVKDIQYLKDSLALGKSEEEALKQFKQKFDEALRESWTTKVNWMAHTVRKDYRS

- solubility kinetic at 24 h [2]: 72.2 µg/mL (≈ 183 µM)
Structure (SMILES): Cc1cc2ncnn2cc1Nc1ncc2c(n1)N(C1CCOCC1)CC(=O)N2C
- viability at 1 µM [1]: 92.5%
- CI [3]: 0.04474
- Activity [4]: 3.46%
- Activity [5]: 0.015%
- CI [6]: 0.2764
- CI [7]: 0.011
- Activity [8]: Non-Toxic
- CI [9]: 0.474
- CI [10]: 0.9812
- IC50 [11]: 830 nM
- inhibition in vivo at 100 mg/kg [12]: 62.4%
